In the NIST ThermoML archive (doi:10.1016/j.fluid.2006.10.012):

Experiment: osmotic coefficient (dimensionless); mn = molality of the nth substance listed, in mol/kg
Details: Liquid, isopiestic method

NCC(=O)O [2-aminoacetic acid] + O
Details	osmotic coefficient
288.15 K, m1 = 0.2174	0.9554
288.15 K, m1 = 0.2178	0.9554
288.15 K, m1 = 0.3075	0.946
288.15 K, m1 = 0.3078	0.946
288.15 K, m1 = 0.5175	0.9341
288.15 K, m1 = 0.5178	0.934
288.15 K, m1 = 0.6241	0.9302
288.15 K, m1 = 0.6251	0.9302
288.15 K, m1 = 0.8647	0.9219
288.15 K, m1 = 0.8654	0.9219
288.15 K, m1 = 1.193	0.9166
288.15 K, m1 = 1.194	0.9166
293.15 K, m1 = 0.2074	0.9705
293.15 K, m1 = 0.2076	0.9705
293.15 K, m1 = 0.3572	0.9556
293.15 K, m1 = 0.3577	0.9555
293.15 K, m1 = 0.5277	0.9428
293.15 K, m1 = 0.5284	0.9428
293.15 K, m1 = 0.8498	0.9282
293.15 K, m1 = 0.8508	0.9282
293.15 K, m1 = 1.027	0.924
293.15 K, m1 = 1.028	0.924
293.15 K, m1 = 1.298	0.9202
293.15 K, m1 = 1.299	0.9202
298.15 K, m1 = 0.2274	0.9815
298.15 K, m1 = 0.2276	0.981
298.15 K, m1 = 0.3213	0.9767
298.15 K, m1 = 0.3214	0.9764
298.15 K, m1 = 0.5417	0.9583
298.15 K, m1 = 0.7869	0.9461
298.15 K, m1 = 0.7878	0.945
298.15 K, m1 = 0.8048	0.9442
298.15 K, m1 = 0.8059	0.9432
298.15 K, m1 = 1.139	0.9297
298.15 K, m1 = 1.14	0.9295
303.15 K, m1 = 0.203	0.9873
303.15 K, m1 = 0.2037	0.9872
303.15 K, m1 = 0.3379	0.9781
303.15 K, m1 = 0.3388	0.9781
303.15 K, m1 = 0.5346	0.966
303.15 K, m1 = 0.535	0.9659
303.15 K, m1 = 0.7489	0.9539
303.15 K, m1 = 0.7501	0.9538
303.15 K, m1 = 0.854	0.9483
303.15 K, m1 = 0.8547	0.9483
303.15 K, m1 = 1.044	0.9384
303.15 K, m1 = 1.045	0.9384

CCC(N)C(=O)O (stereo not drawn) [(.+-.)-α-aminobutyric acid] + O
Details	osmotic coefficient
288.15 K, m1 = 0.2191	0.9642
288.15 K, m1 = 0.2194	0.9642
288.15 K, m1 = 0.3053	0.9569
288.15 K, m1 = 0.3055	0.9569
288.15 K, m1 = 0.5076	0.9529
288.15 K, m1 = 0.5082	0.953
288.15 K, m1 = 0.595	0.9567
288.15 K, m1 = 0.596	0.9567
288.15 K, m1 = 0.7815	0.9748
288.15 K, m1 = 0.7821	0.9749
288.15 K, m1 = 1.057	1.025
288.15 K, m1 = 1.059	1.025
293.15 K, m1 = 0.2031	0.9894
293.15 K, m1 = 0.2034	0.9894
293.15 K, m1 = 0.3484	0.9811
293.15 K, m1 = 0.3492	0.9811
293.15 K, m1 = 0.508	0.9744
293.15 K, m1 = 0.5086	0.9744
293.15 K, m1 = 0.8066	0.9819
293.15 K, m1 = 0.8078	0.982
293.15 K, m1 = 0.9443	1.0001
293.15 K, m1 = 0.9453	1.0003
293.15 K, m1 = 1.139	1.048
293.15 K, m1 = 1.14	1.049
298.15 K, m1 = 0.2217	1.0067
298.15 K, m1 = 0.2219	1.0058
298.15 K, m1 = 0.3106	1.0103
298.15 K, m1 = 0.3109	1.0093
298.15 K, m1 = 0.5105	1.0168
298.15 K, m1 = 0.5108	1.0163
298.15 K, m1 = 0.5636	1.0164
298.15 K, m1 = 0.5637	1.0162
298.15 K, m1 = 0.7428	1.023
298.15 K, m1 = 0.7434	1.023
298.15 K, m1 = 1.022	1.036
298.15 K, m1 = 1.023	1.036
303.15 K, m1 = 0.2054	1.0072
303.15 K, m1 = 0.206	1.0073
303.15 K, m1 = 0.3334	1.0133
303.15 K, m1 = 0.3335	1.0133
303.15 K, m1 = 0.5083	1.0187
303.15 K, m1 = 0.5087	1.0187
303.15 K, m1 = 0.7146	1.025
303.15 K, m1 = 0.7157	1.025
303.15 K, m1 = 0.8091	1.029
303.15 K, m1 = 0.8092	1.029
303.15 K, m1 = 1.03	1.046
303.15 K, m1 = 1.031	1.046

CC(N)C(=O)O (stereo not drawn) [DL-2-aminopropanoic acid] + O
Details	osmotic coefficient
288.15 K, m1 = 0.2159	0.9497
288.15 K, m1 = 0.2163	0.9496
288.15 K, m1 = 0.3062	0.944
288.15 K, m1 = 0.3066	0.944
288.15 K, m1 = 0.5085	0.9513
288.15 K, m1 = 0.5093	0.9514
288.15 K, m1 = 0.6031	0.9603
288.15 K, m1 = 0.6037	0.9603
288.15 K, m1 = 0.8076	0.9837
288.15 K, m1 = 0.8082	0.9838
288.15 K, m1 = 1.098	1.01
293.15 K, m1 = 0.2061	0.9725
293.15 K, m1 = 0.2068	0.9724
293.15 K, m1 = 0.3536	0.9656
293.15 K, m1 = 0.354	0.9656
293.15 K, m1 = 0.5134	0.9677
293.15 K, m1 = 0.5145	0.9677
293.15 K, m1 = 0.8192	0.9905
293.15 K, m1 = 0.8199	0.9905
293.15 K, m1 = 0.9719	1.007
293.15 K, m1 = 0.9725	1.007
293.15 K, m1 = 1.185	1.029
293.15 K, m1 = 1.186	1.029
298.15 K, m1 = 0.2238	0.9972
298.15 K, m1 = 0.2243	0.9954
298.15 K, m1 = 0.3134	0.9976
298.15 K, m1 = 0.3135	0.9972
298.15 K, m1 = 0.52	0.9983
298.15 K, m1 = 0.5203	0.9977
298.15 K, m1 = 0.5759	0.9986
298.15 K, m1 = 0.5762	0.9982
298.15 K, m1 = 0.7604	0.9998
298.15 K, m1 = 0.7609	0.9991
298.15 K, m1 = 1.056	1
303.15 K, m1 = 0.207	1.004
303.15 K, m1 = 0.2076	1.004
303.15 K, m1 = 0.3362	1.004
303.15 K, m1 = 0.3364	1.004
303.15 K, m1 = 0.5119	1.004
303.15 K, m1 = 0.5129	1.004
303.15 K, m1 = 0.7159	1.006
303.15 K, m1 = 0.7166	1.006
303.15 K, m1 = 0.8218	1.01
303.15 K, m1 = 0.8221	1.01
303.15 K, m1 = 1.038	1.02
